Assay results published in the METLIN SMRT retention time set (Domingo-Almenara et al. 2019).

Experiment: gradient 5% acetonitrile 3 min, to 50% in 2 min, to 85% in 15 min, held 3 min, 100 µL/min
Conditions: column: Zorbax Extend-C18 2.1 x 50 mm; eluents: water / acetonitrile, 0.1% formic acid
Summary of the method: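 Pure standards were run in mixtures of ~100 molecules by HPLC coupled to a quadrupole time-of-flight mass spectrometer. The column was a Zorbax Extend-C18 (2.1 × 50 mm, 1.8 μm) at 100 μL/min, with water and acetonitrile each containing 0.1% formic acid, in positive and negative ionization mode. Dead and dwell volumes were 40 μL and 900 μL. Retention time was taken from computationally picked adduct peaks, each manually inspected, with data collected over 3 months.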

| RP-LC retention time [s] | SMILES |
| --- | --- |
| 674 | CCNc1nc(NC)nc(-n2cnc(SC)n2)n1 |
| 617 | CCCN1CCN(c2ncc(C(=O)Nc3ccc(OCC)cc3)c(N)n2)CC1 |
| 728 | CCc1cccc(NS(=O)(=O)c2cc3n(c2)CCCN(C)C3=O)c1 |
| 722 | COCCC(=O)NC1CCN(C2=NS(=O)(=O)C(c3cccc(Cl)c3)=C2C)CC1 |
| 585 | O=C(C1CCCO1)N1CCC(OCc2nc(-c3ccncc3)no2)CC1 (stereo unspecified) |
| 687 | O=C(NCc1ccco1)N1CCc2nn(Cc3ccccc3)c(=O)n2CC1 |
| 594 | Cc1nnc(NC(=O)c2ccc(N3CCCC3)nn2)s1 |
| 757 | O=C(Cn1nc2n(c1=O)CCCCC2)Nc1cccc(Br)c1 |
| 990 | COC(=O)c1c(C)c(C(=O)C(C)N(Cc2ccc(F)cc2)C(=O)C(C)C)c(C)n1C (stereo unspecified) |
| 778 | COc1ccccc1NC(=O)Cn1nc2c(N(C)C3CCCCC3)nccn2c1=O |
| 627 | CC1=NOC(C)(CNC(=O)NC(C)(C)C)C1 (stereo unspecified) |
| 978 | O=C(OCc1cc(-c2ccc3c(c2)OCCO3)on1)c1ccc(Br)o1 |
| 830 | CSc1ncccc1C(=O)NCc1nn(C(C)C)c2ccccc12 |
| 960 | Cc1ccc(CNC(=O)C2(C)CCCN(C(=O)c3cccc(Br)c3)C2)cc1 (stereo unspecified) |
| 760 | COCCn1c(=O)c2cc(C(=O)N3CCCC3)nn2c2ccccc21 |
| 727 | O=C(CCc1c(-c2ccc(Br)cc2)nc2ccccn12)Nc1ccc(F)c(F)c1 |
| 678 | O=C(Nc1cccc(-c2nc3ncccc3o2)c1)[C@@H]1OCCN(C2CC2)[C@H]1c1ccccc1 |
| 672 | CC1CCN(Cc2nc(-c3ccc(N4CCSCC4)nc3)no2)CC1 |
| 564 | O=C(CCNc1cnc2cnccn12)NCc1ccc2c(c1)OCO2 |
| 596 | COc1ccc2c(c1)c(CN1CCC(N3C[C@H](OC)[C@@H]3c3cccnc3)CC1)cn2C(C)C |
| 659 | O=C(NCC(O)c1ccsc1)c1ccc2nsnc2c1 (stereo unspecified) |
| 797 | CCn1nc(C)c2ccn(CC(=O)NCc3ccc(Br)cc3)c(=O)c21 |
| 692 | O=C(C1CCCN(c2cnc3nccnc3c2)C1)N1CCCCCC1 (stereo unspecified) |

| RP-LC retention time [s] | SMILES |
| --- | --- |
| 942 | COc1cccc(S(=O)(=O)N2CCc3c(c(-c4nnc(-c5ccc(F)cc5)o4)nn3C)C2)c1 |
| 955 | Cc1ccc(S(=O)(=O)N2CCC(C(=O)NCCc3csc(-c4cccs4)n3)CC2)c(C)c1 |
| 696 | CN1CC(CNS(=O)(=O)c2ccccc2C(F)(F)F)C2(CCCCC2)C1 (stereo unspecified) |
| 590 | Cc1cc(C)c(S(=O)(=O)NCC2CN(C)CC23CCCCC3)c(C)c1 (stereo unspecified) |
| 877 | Cc1cccc(NC(=O)N2CCC(n3cnc4c(Cl)cccc4c3=O)CC2)c1 |
| 604 | c1cn(-c2ccc(SC3CCCC3)nn2)cn1 |
| 1140 | CCOc1cc(C(=O)Nc2nc(-c3ccc4c(c3)NC(=O)CO4)c(C)s2)cc(OCC)c1OCC |
| 761 | O=C(c1cocn1)N1CC(F)(F)C[C@H]1c1nnc(-c2ccccc2)o1 |
| 870 | CCOc1ccc(-c2nc(Cn3cnc4nc5c(cc4c3=O)CCCC5)c(C)o2)cc1 |
| 832 | O=C(Nc1ccc2c(c1)C(=O)N1CCCCC1CCO2)Nc1ccccc1C(F)(F)F (stereo unspecified) |
| 1150 | CCOc1ccc(-c2nc(C3CC(=O)N(c4ccc(F)c(Cl)c4)C3)no2)cc1OCC (stereo unspecified) |
| 537 | c1ccc(N2CCN(c3ccc4nncn4n3)CC2)nc1 |
| 879 | O=C(C1CCCO1)N1CCC(CCOc2ccccc2F)CC1 (stereo unspecified) |
| 549 | O=S(=O)(c1ccc(Br)cc1)N1CCNCC1 |
| 722 | COc1cccc(NC(=O)C2CCCN2S(=O)(=O)c2cc3c(cc2C)NC(=O)CO3)c1 (stereo unspecified) |
| 891 | Cc1cccc(-c2nc3sc(N4CCCCC4)nn3c2NC(=O)C2CC2)c1 |
| 672 | CC1CCCCN1CCNC(=O)c1cc2c(s1)N(C)CCCC2 (stereo unspecified) |
| 612 | CCN1CCN(C(=O)CC2CCN(C(=O)c3[nH]c(C)c(C(=O)OC(C)C)c3C)CC2)CC1 |
| 811 | Cc1ccnc(NC(=O)C2CCN(S(=O)(=O)c3cc(-c4noc(C5CC5)n4)ccc3C)CC2)c1 |
| 615 | CCN1CCCC1CNC(=O)C(C)n1c2ccccc2c2cnn(C)c(=O)c21 (stereo unspecified) |
| 740 | O=S(=O)(NCc1nnnn1C1CCCCC1)c1cccs1 |
| 595 | COCCc1noc(C2CN(C(=O)c3ocnc3C)C2)n1 |
| 634 | COc1ccc(N2CC(NC(=O)c3ccc(S(=O)(=O)N(C)C)cc3)CC2=O)cc1OC (stereo unspecified) |

| RP-LC retention time [s] | SMILES |
| --- | --- |
| 640 | CC(NC(=O)C1=CCN(Cc2ccc(F)cc2)CC1)c1ccccc1 (stereo unspecified) |
| 593 | O=C(c1cccc(Cl)c1)N1CCN(c2cnn3c(C4CC4)nnc3c2)CC1 |
| 888 | CCCCCCCCCC(=O)NC(CN1CCOCC1)[C@H](O)c1ccccc1 (stereo partly specified) |
| 585 | COCc1cc(=O)n(CC(=O)Nc2ccc(F)cc2)c(N)n1 |
| 931 | Fc1ccc(-c2nnc(Cc3nc(Cc4ccccc4)no3)o2)cc1 |
| 844 | Cc1ccc(C2NC(=O)N(CC(=O)Nc3cc(F)cc(F)c3)C3=C2C(=O)OC3)cc1 (stereo unspecified) |
| 784 | O=C1COc2ccc(S(=O)(=O)N3CCCC3C(=O)NCc3ccccc3Cl)cc2N1 (stereo unspecified) |
| 1150 | COc1cccc(-c2nc(C3CCN(S(=O)(=O)c4ccc(F)c(C)c4)CC3)no2)c1 |
| 722 | O=C1NCCOCCN(C(=O)Nc2ccc3c(c2)OCCO3)[C@@H]2CCCC[C@H]12 |
| 770 | O=S(=O)(Nc1cccn2ncnc12)c1ccc(Cl)cc1 |
| 752 | COc1cccc(C(=O)Nc2c3c(nn2C(C)(C)C)CS(=O)(=O)C3)c1 |
| 949 | Cc1cc(OCC(=O)Nc2cccc(Cl)c2C)nc(N2CCN(c3ccccc3)CC2)n1 |
| 828 | O=C(Nc1ccc(C2(C(=O)NCC3CCCO3)CC2)cc1)c1ccc(Br)cc1 (stereo unspecified) |
| 853 | CC1CCc2nc(NC(=O)CCS(=O)(=O)Cc3ccccc3)sc2C1 (stereo unspecified) |
| 734 | O=S(=O)(c1ccc2nc(N3CCN(C4CCCCC4)CC3)ccc2c1)N1CCCCC1 |
| 853 | Cc1oc(-c2ccc(C(=O)NCCCN3CCCC3=O)cc2)nc1CN1CCc2ccccc21 |
| 860 | CCc1ccccc1N1C(=O)CN(S(C)(=O)=O)CC1(C)C(=O)NCc1ccc(C)cc1 (stereo unspecified) |
| 698 | Cc1ccn2cc(-c3ccc(C)c(NS(=O)(=O)c4ccc(Cl)cc4)c3)nc2c1 |
| 876 | CN(CCc1noc(COc2ccccc2F)n1)C(=O)NCCc1ccccc1 |
| 1010 | Cc1cccc(-c2cc3n(n2)CCCN(C(=O)COc2ccc(Cl)cc2)C3)c1 |
| 770 | COc1ccccc1N1CCN(C(=O)CN2C(=O)NC(c3ccc(Cl)cc3)C3=C2COC3=O)CC1 (stereo unspecified) |
| 743 | CN(C1CCc2nn(CC3CC3)c(=O)n2CC1)S(=O)(=O)c1ccc(C#N)cc1 (stereo unspecified) |
| 780 | CCOC(=O)c1c(C)[nH]c(C(=O)N2CCCC(C(=O)NCc3ccc(OC)cc3)C2)c1C (stereo unspecified) |

| RP-LC retention time [s] | SMILES |
| --- | --- |
| 975 | CC1=NS(=O)(=O)N(C)C=C1C(=O)OCc1ccc(C)cc1 |
| 645 | O=C(NCCC1=CCCCC1)C1CCCN(c2ccncc2)C1 (stereo unspecified) |
| 673 | COc1ccc(C(=O)N2CCC(c3noc(-c4ccncc4)n3)C2)cn1 (stereo unspecified) |
| 604 | CCCNC(=O)N1CCC(c2nc(-c3ccncc3)no2)C1 (stereo unspecified) |
| 808 | O=C(c1ccccc1)N1CCN(C(=O)N(c2ccccc2)c2ccccc2)CC1 |
| 747 | Cc1ccc(NC(=O)N2CCCC(Cn3cnc4cccnc43)C2)cc1Cl (stereo unspecified) |
| 742 | CC(C)NC(=O)N1CCC(OCc2ccccc2)C1 (stereo unspecified) |
| 824 | Cc1cc(C)n2nc(SCC(=O)N(c3ccccc3)c3ccccc3)nc2n1 |
| 936 | COc1ccc(-c2cc3c(=O)n(Cc4nc(-c5ccccc5)oc4C)ccn3n2)cc1 |
| 760 | CC(=O)c1cccc(NC(=O)Cn2cc3c(n2)CCCC3)c1 |
| 947 | Cc1c(S(=O)(=O)Nc2cccc(-c3ccc4ccccc4n3)c2)cnn1C(F)F |
| 1080 | CCc1nc(-c2csc(S(=O)(=O)N3CCCC(C(=O)Nc4cccc(Cl)c4C)C3)c2)no1 (stereo unspecified) |
| 675 | CCCn1c(CCNC(=O)c2ccc(F)cc2F)nc2cccnc21 |
| 606 | CCn1ccc(C(=O)N2CCC(c3nc4cccnc4n3CCOC)C2)n1 (stereo unspecified) |
| 1130 | COC(=O)c1c(C)c(C(=O)C(C)N(CCC(C)C)C(=O)c2ccccc2Cl)c(C)n1C (stereo unspecified) |
| 610 | Nc1nc2ccc([N+](=O)[O-])cc2[nH]1 |
| 618 | O=C(c1cccc(Cl)c1)N(CCS(=O)(=O)N1CCNCC1)CC1CCCO1 (stereo unspecified) |
| 704 | CCCNC(=O)Cc1c(C)nc2nc(-c3ccccc3)nn2c1C |
| 591 | COc1ccccc1CNCc1ccc2c(c1)n(C)c(=O)n2C |
| 557 | C=CCNC(=O)Cc1cn2cc(Br)ccc2n1 |
| 759 | COC(=O)c1ccccc1NC(=O)c1cnc2sc(C)cn2c1=O |
| 826 | CC(Oc1ccc(=O)n(-c2ccc(F)cc2)n1)C(=O)Nc1ccccc1Cl (stereo unspecified) |
